Experimental data published in article PMC4982898, “Molecular Design, Structural Analysis and Antifungal Activity of Derivatives of Peptide CGA-N46” (Interdisciplinary Sciences, Computational Life Sciences, 2016).

What was measured:
Format in all cases: cell-based
[1] = system: Candida tropicalis (ATCC-20240); assay: Antifungal MIC, broth microdilution with MTT; conditions: most sensitive yeast
Method: (§1) Candida glabrata (ATCC-90525), Candida parapsilosis (ATCC-20224), Candida krusei (ATCC-6258), Candida tropicalis (ATCC-20240), Candida albicans (ATCC-2048) were supplied by the Chinese Academy of Medical Sciences.
(§2) Minimum inhibitory concentrations (MICs) of CGA-N46 and its derivatives against fungi were measured according to a modified version of broth microdilution method of the Clinical and Laboratory Standards Institute (CLSI). Fungi cell’s viability was assessed based on the reduction of 3-[4,5-dimethylthiazolyl]-2,5-diphenyltetrazolium bromide (MTT) into formazan dye by active mitochondria. Briefly, peptides were serially twofold diluted in 20 mM PBS (pH 6.0) to a final concentration between 2 mg mL^−1 and 3.9 µg mL^−1. Subsequently, 100 μL samples was dispensed into the wells of a 96-U-shaped-well plate, and each was mixed with 100 μL of the 2 × inoculum suspension (1–5 × 10^4 CFU mL^−1) of a log-phase fungal culture in Sabouraud (SD) broth. Strains without treatment with peptides were used as negative control. The cultures were incubated at 30 °C without agitation for 16 h. 10 μL of MTT solution (5 mg mL^−1 MTT in PBS) was added to each well, and the plate was further incubated for 4 h. After rinsed, 100 μL of dimethylsulfoxide (DMSO) was added to dissolve the MTT formazan crystals. The inhibition of growth was determined by measuring the absorbance at 570 nm with a microplate reader. The relative cellular activity was calculated according to the following formula: cell survival inhibition rate (\% of control)= [(OD570of the negative sample-OD570of the treated sample) / OD570of the negative control]×100\%.
(§3) Each test was performed in triplicate, and the data were expressed as the mean ± SE.

[2] = system: Human red blood cells (RBCs)
Method: Hemolytic activity was tested according to the method. Briefly, peptides were serially twofold diluted using PBS in 96-well plates to give a volume of 100 μL of the sample solution in each well, and the final concentration of peptides ranged between 2.0 mg mL^−1 and 3.9 μg mL^−1. Human red blood cells (RBCs) from a healthy volunteer were diluted to a concentration of 2 % in PBS. 100 μL of the RBC suspension was added to each well, and the reactions were incubated at 37 °C for 60 min, followed by 150 μL supernatant being transferred to a new 96-well plate (U-shaped well). The release of hemoglobin was determined by measuring the absorbance of the supernatant at 570 nm. RBCs in PBS and 0.1 % (v/v) Triton-X100 were used as the negative and positive controls, respectively. The percentage of hemolysis was calculated using the following formula: Hemolysis rate%=[(OD570of the treated sample-OD570of the negative control)/OD570of the positive control-OD570of the negative control]×100%. Each test was performed in triplicate, and the data were expressed as the mean ± SE.

[3] = system: Candida albicans (ATCC-2048); assay: Antifungal MIC, broth microdilution with MTT; conditions: most sensitive yeast
Method: as §1, §2, §3

[4] = system: Candida krusei (ATCC-6258); assay: Antifungal MIC, broth microdilution with MTT; conditions: most sensitive yeast
Method: as §1, §2, §3

[5] = system: Candida glabrata (ATCC-90525); assay: Antifungal MIC, broth microdilution with MTT; conditions: most sensitive yeast
Method: as §1, §2, §3

Substance	MIC C. tropicalis [1]	5 % Hemolysis [2]	hemolytic activity (in words) [2]	MIC C. albicans [3]	MIC C. krusei [4]	MIC C. glabrata [5]
H-ALQGAKERAHQQ-OH [CGA-N12, NH2–ALQGAKERAHQQ–COOH]	75 µM	0.39 mmol/L	weak hemolytic activity at the concentration of MIC			
H-PMPVSQECFETLRGHERILSILRHQNLLKELQDLALQGAKERAHQQ-OH [CGA-N46]		0.74 mmol/L	weak hemolytic activity at the concentration of MIC			
H-GAKERAHQ-OH [CGA-N8, NH2–GAKERAHQ–COOH]		0.27 mmol/L	MIC was near the concentration of its 5 % hemolysis	240 µM	240 µM	
H-ERILSILRHQNLLKE-OH [CGA-N15, NH2–ERILSILRHQNLLKE–COOH]	73 µM	0.031 mmol/L	strong hemolytic activity			
H-LQDLALQGAKERAHQQ-OH [CGA-N16, NH2–LQDLALQGAKERAHQQ–COOH]		0.056 mmol/L	strong hemolytic activity			280 µM
